Test results as given in patent EP4806898A1, “HETEROARYL DERIVATIVE COMPOUND AND USE THEREOF” (Voronoi Inc., priority 2023, dated 2025).
Where two headings read alike, the source gives them in different places.

Tests used:
[1] = target: T1, recombinant USP1 protein (Homo sapiens, UniProt O94782, DEL125-138/DEL229-408/DEL608-737); assay: Binding affinity to recombinant USP1 protein by differential scanning fluorimetry; details: for ΔTm at 100 µM: read-out: ΔTm (°C)
T1 sequence (O94782 with tags, fused parts or gaps DEL125-138/DEL229-408/DEL608-737): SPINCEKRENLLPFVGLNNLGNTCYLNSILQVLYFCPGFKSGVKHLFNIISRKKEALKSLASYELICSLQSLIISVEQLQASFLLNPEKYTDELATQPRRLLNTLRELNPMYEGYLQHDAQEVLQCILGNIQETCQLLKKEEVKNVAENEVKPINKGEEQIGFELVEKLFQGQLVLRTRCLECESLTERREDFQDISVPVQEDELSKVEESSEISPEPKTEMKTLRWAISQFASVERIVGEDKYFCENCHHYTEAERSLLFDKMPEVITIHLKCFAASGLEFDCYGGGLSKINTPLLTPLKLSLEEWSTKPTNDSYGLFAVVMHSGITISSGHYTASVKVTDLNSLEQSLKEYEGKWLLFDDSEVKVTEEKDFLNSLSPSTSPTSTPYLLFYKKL
Experimental: <Experimental Example 1> Confirmation and evaluation of the binding affinity to recombinant USP1 protein
To evaluate the binding affinity of the compounds of the present invention to the USP1 protein, the following experiment was performed using differential scanning fluorimetry.
Recombinant 0.03 mg/mL USP1 (Δ1-66, Δ125-138, Δ229-408, Δ608-737) protein, dye reagent, and buffer solution (50 mM Tris-HCl pH 8.0, 150 mM NaCl, 2% glycerol, 1 mM DTT) were mixed and 19 µL of the mixture was dispensed into a well plate (MicroAmp Fast 96-Well Reaction plate, 0.1 mL). Each compound was injected at a final concentration of 100 µM in an amount of 1 µL, and the plate containing a total of 20 µL was sealed with MicroAmp Optical Adhesive Film. The melting temperature (Tm) of the protein in each well was measured using a real-time PCR (RT-PCR) device. The difference between the Tm of the sample containing the compound and the Tm containing DMSO is referred to as delta Tm (ΔTm), where a larger ΔTm value indicates stronger binding affinity. The degree of temperature at which the protein is modified in the presence of the compound compared to DMSO was calculated according to Equation 1 below: [formula]

[2] = tested on: UWB1.289 cells; assay: Cell proliferation inhibitory activity in BRCA1/2-mutant or HRD-positive cells (Cell Titer-Glo); format: cell-based; details: read-out: GI50 UWB1.289 BRCA1 mut
Experimental: <Experimental Example 2> Evaluation of Cell Proliferation Inhibitory Activity in BRCA1/2-Mutant or HRD-Positive Cells
To evaluate the inhibitory activity of the compound according to the present invention on the proliferation of BRCA1/2 mutants or homologous recombination deficient (HRD) positive cell lines, the following experiments were performed. UWB1.289 cells were cultured in medium (50% MEBM + 50% RPMI1640), and 1,000 cells were seeded in a well plate (black clear bottom 96-well plate, Corning) 16 to 24 hours prior to compound treatment. The compounds were diluted in dimethyl sulfoxide (3-fold serial dilution starting at 10 µM, for a total of 10 concentrations) and injected at 1 µl per well, resulting a final concentration range of […] to 10 µM. Measurements of live cells were performed by a reaction in a 37 °C and CO2 incubator for 144 hours after compound treatment. The cells were incubated for 10 minutes in an incubator using Cell Titer-Glo luminescent cell-viability reagent (Promega), and luminescence intensity thereof was measured using a reader (SynergyNeo2, Biotek). GI50 values were calculated using the GraphPad Prism version 8.4.3 (GraphPad software Inc., San Diego) program.

[3] = compound 100 µM, 0.03 mg/mL USP1 (Δ1-66, Δ125-138, Δ229-408, Δ608-737), Tm with compound minus Tm with DMSO
[4] = UWB1289, UWB1.289 cells, 144 hours after compound treatment, Cell Titer-Glo, 1.5 nM to 10 µM
[5] = UWB1.289 cells, 144 hours after compound treatment, Cell Titer-Glo, 1.5 nM to 10 µM

ΔTm at 100 µM [1, 3]	Compound	GI50 [2, 4]	also measured
–	COc1ncnc(C2CC2)c1-c1ncc2cc(C(=O)NCC3(O)COC3)n(Cc3ccc(-c4nc(C(F)(F)F)cn4C(C)C)cc3)c2n1 [Example 140, 2-(4-cyclopropyl-6-methoxypyrimidin-5-yl)-N-((3-hydroxyoxetan-3-yl)methyl)-7-(4-(1-isopropyl-4-(trifluoromethyl)-1H-imidazol-2-yl)benzyl)-7H-pyrrolo[2,3-d]pyrimidine-6-carboxamide]	–	ΔTm at 100 µM [1]: > 5 °C; GI50 ([2]; UWB1289, 144 h): < 0.1 µM
> 5 °C	COc1ncnc(C2CC2)c1-c1ncc2cc(C(=O)NCC(C)=O)n(Cc3ccc(-c4nc(C(F)(F)F)cn4C(C)C)cc3)c2n1 [Example 29, 2-(4-cyclopropyl-6-methoxypyrimidin-5-yl)-7-(4-(1-isopropyl-4-(trifluoromethyl)-1H-imidazol-2-yl)benzyl)-N-(2-oxopropyl)-7H-pyrrolo[2,3-d]pyrimidine-6-carboxamide]	< 0.1 µM	–
> 5 °C	COc1ncnc(C2CC2)c1-c1ncc2cc(C(=O)NCC3(C)COC3)n(Cc3ccc(-c4nc(C(F)(F)F)cn4C(C)C)cc3)c2n1 [Example 125, 2-(4-cyclopropyl-6-methoxypyrimidin-5-yl)-7-(4-(1-isopropyl-4-(trifluoromethyl)-1H-imidazol-2-yl)benzyl)-N-((3-methyloxetan-3-yl)methyl)-7H-pyrrolo[2,3-d]pyrimidine-6-carboxamide]	< 0.1 µM	–
> 5 °C	COc1ncnc(C2CC2)c1-c1ncc2cc(C(=O)NC[C@H]3CCCO3)n(Cc3ccc(-c4nc(C(F)(F)F)cn4C(C)C)cc3)c2n1 [Example 127, (R) -2-(4-cyclopropyl-6-methoxypyrimidin-5-yl)-7-(4-(1-isopropyl-4-(trifluoromethyl)-1H-imidazol-2-yl)benzyl)-N-((tetrahydrofuran-2-yl)methyl)-7H-pyrrolo[2,3-d]pyrimidine-6-carboxamide]	< 0.1 µM	–
> 5 °C	COc1ncnc(C2CC2)c1-c1ncc2cc(C(=O)NCCN3CCC3)n(Cc3ccc(-c4nc(C(F)(F)F)cn4C(C)C)cc3)c2n1 [Example 149, N-(2-(azetidin-1-yl)ethyl)-2-(4-cyclopropyl-6-methoxypyrimidin-5-yl)-7-(4-(1-isopropyl-4-(trifluoromethyl)-1H-imidazol-2-yl)benzyl)-7H-pyrrolo[2,3-d]pyrimidine-6-carboxamide]	< 0.1 µM	–
–	2-(4-cyclopropyl-6-ethoxypyrimidi n-5-yl)-7-(4-(1-isopropyl-4-(trifluorometh yl)-1H-imidazol-2-yl)benzyl)-N-methyl-7H-pyrrolo[2,3-d]pyrimidine-6-carboxamide [Example 63]	–	ΔTm (°C) [1, 3]: A (ΔTm (°C) > 5 °C); GI50 [2, 5]: < 0.1 µM
–	CC[C@@H](C)NC(=O)c1cc2cnc(-c3c(OC)ncnc3C3CC3)nc2n1Cc1ccc(-c2nc(C(F)(F)F)cn2C(C)C)cc1 [Example 92, (R)-N-(sec-butyl)-2-(4-cyclopropyl-6-methoxypyrimidin-5-yl)-7-(4-(1-isopropyl-4-(trifluoromethyl)-1H-imidazol-2-yl)benzyl)-7H-pyrrolo[2,3-d]pyrimidine-6-carboxamide]	< 0.1 µM	–
–	2-(4-cyclopropyl-6-methoxypyrimid in-5-yl)-N-((3,3-difluorocyclob utyl)methyl) - 7-(4-(1-isopropyl-4-(trifluorometh yl)-1H-imidazol-2-yl)benzyl)-7H-pyrrolo[2,3-d]pyrimidine-6-carboxamide [Example 84]	–	GI50 [2, 5]: 0.1 to 0.5 µM
–	COc1ncnc(C2CC2)c1-c1ncc2cc(C(=O)NC3CCNCC3)n(Cc3ccc(-c4nc(C(F)(F)F)cn4C(C)C)cc3)c2n1 [Example 159, 2-(4-cyclopropyl-6-methoxypyrimidin-5-yl)-7-(4-(1-isopropyl-4-(trifluoromethyl)-1H-imidazol-2-yl)benzyl)-N-(piperidin-4-yl)-7H-pyrrolo[2,3-d]pyrimidine-6-carboxamide]	0.1 to 0.5 µM	–
–	COc1ncnc(C2CC2)c1-c1ncc2cc(C(=O)NC[C@H]3CCCN3C)n(Cc3ccc(-c4nc(C(F)(F)F)cn4C(C)C)cc3)c2n1 [Example 136, (R) -2-(4-cyclopropyl-6-methoxypyrimidin-5-yl)-7-(4-(1-isopropyl-4-(trifluoromethyl)-1H-imidazol-2-yl)benzyl)-N-((1-methylpyrrolidin-2-yl)methyl)-7H-pyrrolo[2,3-d]pyrimidine-6-carboxamide]	< 0.1 µM	–
> 5 °C	COc1ncnc(C2CC2)c1-c1ncc2cc(C(=O)NO)n(Cc3ccc(-c4nc(C(F)(F)F)cn4C(C)C)cc3)c2n1 [Example 120, 2-(4-cyclopropyl-6-methoxypyrimidin-5-yl)-N-hydroxy-7-(4-(1-isopropyl-4-(trifluoromethyl)-1H-imidazol-2-yl)benzyl)-7H-pyrrolo[2,3-d]pyrimidine-6-carboxamide]	–	–
< 5 °C	CNC(=O)c1cc2cnc(-c3c(OC)ncnc3C3CC3)nc2n1Cc1ccc(-n2nc(C(F)(F)F)cc2C(=O)O)cc1 [Example 213, 1-(4-((2-(4-cyclopropyl-6-methoxypyrimidin-5-yl)-6-(methylcarbamoyl)-7H-pyrrolo[2,3-d]pyrimidin-7-yl)methyl)phenyl)-3-(trifluoromethyl)-1H-pyrazol-5-carboxylic acid]	–	–
> 5 °C	COc1ncnc(C2CC2)c1-c1ncc2cc(C(=O)NCCN3CCNCC3)n(Cc3ccc(-c4nc(C(F)(F)F)cn4C(C)C)cc3)c2n1 [Example 98, 2-(4-cyclopropyl-6-methoxypyrimidin-5-yl)-7-(4-(1-isopropyl-4-(trifluoromethyl)-1H-imidazol-2-yl)benzyl) -N-(2-(piperazin-1-yl)ethyl)-7H-pyrrolo[2,3-d]pyrimidine-6-carboxamide]	–	–
> 5 °C	COc1ncnc(C2CC2)c1-c1ncc2cc(C(=O)N3CCCC3)n(Cc3ccc(-c4nc(C(F)(F)F)cn4C)cc3)c2n1 [Example 192, (2-(4-cyclopropyl-6-methoxypyrimid in-5-yl)-7-(4-(1-methyl-4-(trifluoromethyl)-1H-imidazol-2-yl)benzyl)-7H-pyrrolo[2,3-d]pyrimidin-6-yl) (pyrrolidin-1-yl)methanone]	–	–
–	COc1ncnc(C2CC2)c1-c1ncc2cc(C(N)=O)n(Cc3ccc(-c4nc(C(F)(F)F)cn4C)cc3)c2n1 [Example 148, 2-(4-cyclopropyl-6-methoxypyrimidin-5-yl)-7-(4-(1-methyl-4-(trifluoromethyl)-1H-imidazol-2-yl)benzyl)-7H-pyrrolo[2,3-d]pyrimidine-6-carboxamide]	< 0.1 µM	–

Compound	ΔTm at 100 µM [1, 3]	GI50 [2, 4]	also measured
COc1ncnc(C2CC2)c1-c1ncc2cc(C(=O)N3C[C@H]4CC[C@@H](C3)N4C3CC3)n(Cc3ccc(-c4nc(C(F)(F)F)cn4C(C)C)cc3)c2n1 [Example 46, (2-(4-cyclopropyl-6-methoxypyrimid in-5-yl)-7-(4-(1-isopropyl-4-(trifluoromethyl)-1H-imidazol-2-yl)benzyl)-7H-pyrrolo[2,3-d]pyrimidin-6-yl)((1R,5S)-8-cyclopropyl-3,8-diazabicyclo[3 .2.1]octan-3-yl)methanone]	> 5 °C	–	–
COc1ncnc(C2CC2)c1-c1ncc2cc(C(=O)N3CC4CCC(C3)N4)n(Cc3ccc(-c4nc(C(F)(F)F)cn4C(C)C)cc3)c2n1 [Example 16, (3,8-diazabicyclo[3 .2.1]octan-3-yl)(2-(4-cyclopropyl-6-methoxypyrimidin-5-yl)-7-(4-(1-isopropyl-4-(trifluoromethyl)-1H-imidazol-2-yl)benzyl)-7H-pyrrolo[2,3-d]pyrimidin-6-yl)methanone]	> 5 °C	–	–
